Where no end group is shown, it is not given here.
Columns and labels:
rhodopsin = target: T1, rhodopsin (Bos taurus, UniProt P02699); test: "extra MII" assay: stabilization of metarhodopsin II; type: biochemical, bovine; details: for EC50: MBP-high affinity peptide fusion proteins
T1 construct: Bovine rod outer segments (rhodopsin-containing membranes) were prepared from fresh retinas; from tissue; host or cells: bovine retina, rod outer segment membranes (EDTA- and urea-washed)
Source text: Rhodopsin can be measured spectrophotometrically in many of its conformational states. The high affinity, biologically active rhodopsin state can be easily differentiated from its precursor, MI, by the “extra” MII assay. See Example 35. This assay relies on the observation that under conditions of high pH and low temperature, MII is stabilized in the presence of Gt and can be spectrophotometrically measured. The ability of the C-terminal peptide to stabilize Meta II in the same manner as the heterotrimeric Gt, provides the tools to investigate the structural basis of the interaction of G proteins with the agonist binding sites of activated receptors.
For the “extra MII” assay, EDTA-washed rhodopsin (Example 5; 5 μM) is incubated in a 50 mM HEPES buffer, pH 8.2, with 100 mM NaCl, 1 mM MgCl2, and 1 mM DTT at 5.3° C., in the absence or presence of varying concentrations of Gt340-350 analogs or Gt. The sample is maintained at 5.4° C. using a water-jacketed and thermostated circulator cuvette holder in an SLM Aminco DW2000 spectrophotometer at 390 and 440 nm. A flash of light bleaching 10% of the rhodopsin is presented and after a 1 min incubation, a second spectrum is measured and the difference in spectrum calculated. “Extra” MII is calculated as the difference between the absorbance at 390 and 440. Dose response curves of MII stabilization by αt340350 (λ), mutant α340-350K341L(ν), and heterotrimeric Gt (v) were analyzed by non-linear regression using the program GraphPad PRISM and are shown in FIG. 23.
EDTA-washed rhodopsin (5 μM) was incubated in a 50 mM HEPES buffer, pH 8.2, with 100 mM NaCl, 1 mM MgCl2, and 1 mM DTT at 5.3° C., and “extra” MII was measured. For compounds that enhanced MBP-8 binding over 25% using the color coded readout, dose studies were performed to generate EC50 curves. Table XXII below provides the calculated EC50 for metarhodopsin II stabilization of each compound.

[1] = target: T2, light-activated rhodopsin (Bos taurus, UniProt P02699); test: ELISA binding of MBP-peptide fusion proteins to light-activated rhodopsin; parameters: species or system bovine; details: for EC50 / ELISA OD450: MBP-high affinity peptide fusion proteins; for EC50: read-out: MII binding EC50; for ELISA OD450: absorbance at OD450 in a panning ELISA
T2 construct: Bovine rod outer segments (rhodopsin-containing membranes) were prepared from fresh retinas; from tissue; host or cells: bovine retina, rod outer segment membranes (EDTA- and urea-washed)
T2 sequence (P02699 whole entry, the tested form may be a part): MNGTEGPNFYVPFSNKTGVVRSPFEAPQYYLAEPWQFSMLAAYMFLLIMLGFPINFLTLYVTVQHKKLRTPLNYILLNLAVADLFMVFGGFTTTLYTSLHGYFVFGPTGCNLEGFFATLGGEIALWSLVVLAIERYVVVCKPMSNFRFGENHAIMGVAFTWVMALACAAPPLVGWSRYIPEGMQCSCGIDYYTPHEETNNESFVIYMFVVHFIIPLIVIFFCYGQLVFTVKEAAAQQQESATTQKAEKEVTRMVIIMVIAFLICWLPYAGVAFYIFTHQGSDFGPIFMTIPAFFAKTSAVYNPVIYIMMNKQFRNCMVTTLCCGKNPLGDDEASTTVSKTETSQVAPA
Source text: The entire population of peptide-coding sequences identified in round 4 of panning (see Example 7) was transferred from pJS142 to pELM3 (New England Biolabs). This plasmid is a pMal-c2 derivative with a modified polylinker, inducible by isopropyl β-thiogalacto-pyranoside and containing the E. coli malE gene with a deleted leader sequence and leads to cytoplasmic expression of MBP fusion proteins. The MBP-carboxyl terminal peptide analog fusion proteins were expressed in E. coli.
For the assay, in the dark, 1 μg/well of ROS membranes (rhodopsin) as described in Example 5 was directly immobilized on microtiter wells in cold HEK/DTT for one hour at 4° C. The wells were rinsed, blocked with 1% BSA in HEK/DTT for one hour at 4° C. and rinsed again. Bound rhodopsin was activated by exposure to light for 5 minutes on ice before addition of the MBP fusion proteins (crude bacterial lysates were diluted 1:50 in HEK with 1 μM dithiothreitol; purified proteins were used at 0.2-120 nM). The MBP-Gαt340-350K341R (pELM17) fusion protein and MBP with linker sequence only (pELM6) were present in control wells at 50 nM final concentration. After 30 minutes, wells were washed and rabbit anti-MBP antibody (New England Biolabs) was added. The anti-MBP antibody was used at a 1:1000 dilution for crude lysates and a 1:3000 dilution for purified proteins. After 30 minutes, wells were rewashed and goat anti-rabbit antibody conjugated to horseradish peroxidase (1:7500 dilution for crude lysates; 1:10,000 dilution for purified proteins; Kierkagaard & Perry Laboratories) was added. After 30 minutes, the plate was washed four times with PBS containing 0.05% Tween™20. Horseradish peroxidase substrate (100 μl) was added and color was allowed to develop for about 20 minutes. The reaction was stopped by addition of 100 μl 2N sulfuric acid. Values indicate absorbance at OD450. The positive control for the assay was pELM 17, which encodes the MBP fusion protein Gαt340-350K341R. pELM6, which expresses MBP protein fused to a linker sequence only, served as the negative control. “No lysate” control wells were included to reflect any intrinsic, non-specific binding within the assay. […]

PAR1 [2] = target: T3, PAR1 (Homo sapiens, UniProt P25116); test: ELISA binding of purified MBP clones to SF9 membranes expressing PAR1 or muscarinic M1 receptor; parameters: expressed in transfected cells; host or cells: membranes of Sf9 insect cells infected with ThR/pBluebac recombinant virus; details: for specificity (in words): PAR1 versus Gq-coupled muscarinic M1 receptor; for binding affinity for PAR1 (in words): purified MBP clones, SF9 membranes
T3 sequence (P25116 22-425): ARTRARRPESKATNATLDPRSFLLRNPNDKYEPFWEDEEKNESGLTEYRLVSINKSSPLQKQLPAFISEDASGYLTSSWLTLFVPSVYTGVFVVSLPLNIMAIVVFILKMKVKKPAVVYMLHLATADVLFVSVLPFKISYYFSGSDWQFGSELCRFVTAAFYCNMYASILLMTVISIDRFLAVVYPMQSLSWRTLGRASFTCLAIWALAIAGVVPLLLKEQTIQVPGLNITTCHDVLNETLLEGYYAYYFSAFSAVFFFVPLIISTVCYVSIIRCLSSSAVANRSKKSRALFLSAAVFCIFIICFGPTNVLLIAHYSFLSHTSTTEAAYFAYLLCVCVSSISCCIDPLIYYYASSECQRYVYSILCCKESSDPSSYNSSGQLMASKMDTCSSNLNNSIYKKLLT
Protocol: To identify high affinity peptides that bind PAR1, membranes prepared from mammalian cells (Chinese hamster ovary) overexpressing PAR1 were panned with the G11 peptide library. ELISA binding affinity results of selected clones are shown in FIG. 9 for their binding to membranes prepared from SF9 cells expressing either PAR1 or the Gq-coupled muscarinic M1 receptor. To quantitate the binding, purified MBP clones were analyzed using ELISA methods in which the secondary antibody was conjugated to HRP. The binding for the control MBP-Gq fusion protein is shown. The data are the average of two separate experiments done in duplicate.

PAR1 [3] = target: T3, PAR1; test: Binding of MBP-Gαq to purified, reconstituted activated PAR1 (ELISA); parameters: made in house; host or cells: Sf9 insect cells infected with ThR/pBluebac recombinant virus, purified on an anti-PAR1 monoclonal antibody column; details: purified reconstituted PAR1 with thrombin receptor activating peptide
Protocol: Microtiter wells were coated with purified, reconstituted PAR1 in the presence of […] thrombin receptor activating peptide, as described above in Example 6. Purified maltose binding protein-Gαq (MBP-Gαq) was added at the concentrations indicated in FIG. 11 and incubated one hour on a shaker at 4° C. The wells were rinsed and then probed with a rabbit anti-maltose binding protein antibody, followed by alkaline phosphatase conjugated secondary antibodies, as described above. Substrate was added and the color was allowed to develop about 20 minutes. Absorbance at 405 nm was measured and dose-response curves were calculated using GraphPad Prism (version 2.0). See results in FIG. 11.

[4] = target: T2, light-activated rhodopsin; test: Competition of heterotrimeric Gt with MBP high affinity peptide fusion proteins for rhodopsin; type: binding, bovine; details: 1 μM heterotrimeric Gt
Protocol: When light-activated rhodopsin was screened for peptides based on the C-terminus of Gt, a large number of high-affinity sequences were obtained. Binding of MBP fusion proteins containing the high affinity peptide from the library (sequences from clones 8, 9, 10, 18, 23, 24, as well as pELM17 which encodes the wild-type peptide sequence, and pELM6 which contains no peptide; MBP-8, MBP-9, MBP-10, MBP-18, MBP-23, MBP-24, MBP-pELM17) were assessed for their ability to bind rhodopsin (0.5 μg rhodopsin/well) in the presence or absence of heterotrimeric Gt.
Lysate (50 μl) from each clone was added and incubated in the light. After 45 minutes, 1 μM heterotrimeric Gt was added and the solution incubated for 30 minutes. Anti-MBP antibody was added, followed by goat anti-rabbit alkaline phosphatase conjugated antibody and substrate. The color was allowed to develop.

T1 sequence (P02699 whole entry, the tested form may be a part): as the sequence (P02699 whole entry, the tested form may be a part) above

ICENLKDCGLF [MBP-10]
EC50 (rhodopsin): 5400 nM | EC50 [1]: 42 nM | ELISA OD450 [1]: .36

IKENLKDCGLF [Gt, reference compound]
EC50 (rhodopsin): > 100000 nM | EC50 [1]: 6000 nM | ELISA OD450 [1]: .01

LHLNLKEYNLV (also: fused to MBP) [PAR-33, MBP clone, linker LSTN]
specificity (in words) (PAR1 [2]): low specificity | binding affinity for PAR1 (in words) (PAR1 [2]): low affinity

LLENLRDCGMF [Peptide 8]
EC50 (rhodopsin): 940 nM | EC50 [1]: 7.8 nM | ELISA OD450 [1]: .54

LLENLRDCGMI [MBP-8]
stabilization of MII (in words) (rhodopsin): stabilized MII | binding affinity to light-activated rhodopsin (in words) [1]: high affinity

LQLNRNEYYLV (also: fused to MBP) [PAR-13, MBP clone, linker VRPS]
binding affinity for PAR1 (in words) (PAR1 [2]): high affinity binding

LQQKLKEYSLV (also: fused to MBP) [PAR-23, MBP clone, linker LSRS]
specificity (in words) (PAR1 [2]): low specificity | binding affinity for PAR1 (in words) (PAR1 [2]): low affinity

LQQVLKDCGLL [MBP-9]
EC50 (rhodopsin): 1050 nM | EC50 [1]: 10 nM | ELISA OD450 [1]: .35

MBP-Gαq: purified maltose binding protein fused to native Gαq C-terminal peptide
IC50 (PAR1 [3]): 214 nM

MLENLKDCGLF [MBP-18]
EC50 (rhodopsin): 1240 nM | binding affinity to light-activated rhodopsin (in words) [1]: even higher binding affinities than did MBP-8 | EC50 [1]: 3.8 nM | ELISA OD450 [1]: .58

MLKNLKDCGMF [MBP-24]
EC50 (rhodopsin): 490 nM | binding affinity to light-activated rhodopsin (in words) [1]: even higher binding affinities than did MBP-8 | EC50 [1]: 6.6 nM | ELISA OD450 [1]: .61

QRLNVGEYNLV (also: fused to MBP) [PAR-34, MBP clone, linker LPQM]
binding affinity for PAR1 (in words) (PAR1 [2]): high affinity binding

VLEDLKSCGLF [MBP-23]
EC50 (rhodopsin): 3500 nM | EC50 [1]: 20 nM | ELISA OD450 [1]: .66

heterotrimeric Gt: heterotrimeric G protein, transducin (Gt) [reference compound]
stabilization of MII (in words) (rhodopsin): stabilize the active form of rhodopsin | effect on high affinity peptide fusion protein binding to light-activated rhodopsin (in words) [4]: competitively inhibited

Source: patent US7294472B2, “Method for identifying modulators of G protein coupled receptor signaling” (Caden Biosciences, priority 2001, dated 2007)
